Here are results for five molecules from article PMC12675387, “Receptor interaction profiles of 4-alkoxy-2,6-dimethoxyphenethylamines (Ψ derivatives) and related amphetamines” (Frontiers in Pharmacology, 2025).

One experiment has as its target T1, human TAAR1 (Homo sapiens, UniProt Q96RJ0).
T1 construct: expressed in transfected cells; host or cells: HEK 293 cells
T1 sequence (Q96RJ0 1-339): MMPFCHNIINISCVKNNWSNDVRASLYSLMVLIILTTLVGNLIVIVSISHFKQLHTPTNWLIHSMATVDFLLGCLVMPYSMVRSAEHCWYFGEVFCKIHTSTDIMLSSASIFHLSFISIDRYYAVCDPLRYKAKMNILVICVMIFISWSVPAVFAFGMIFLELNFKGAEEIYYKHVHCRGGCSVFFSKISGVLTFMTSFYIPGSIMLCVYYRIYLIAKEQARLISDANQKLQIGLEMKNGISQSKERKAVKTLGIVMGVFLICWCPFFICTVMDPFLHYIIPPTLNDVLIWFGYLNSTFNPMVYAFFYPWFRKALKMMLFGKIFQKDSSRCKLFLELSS
Put plainly: Activation potency at human TAAR1 (cAMP assay, HEK 293 cells). It is filed as cell-based. On the procedure:
The activation potency at the human TAAR1 was determined as previously described by [Luethi et al. (2018)]. In summary, recombinant HEK 293 cells stably transfected with the human TAAR1 were grown in culture flasks composed of 30 mL high glucose DMEM with 10% heat inactivated fetal calf serum, […] Geneticin, and […] hygromycin B at 37 °C and 5% CO2. The cells were grown to 80%–90% confluency before collection. The cells were washed with phosphate-buffer saline (PBS) and 5 mL of trypsin/EDTA solution were added for 5 min at 37 °C to detach the cells from the flask. Then, 45 mL of fresh medium were added to the flask and the total mixture was put into a falcon tube, which was centrifuged for 3 min at 900 rpm at room temperature. The supernatant was aspirated, and the remaining cell pellet was resuspended in fresh medium to a concentration of 5 × 10^5 cells per mL. Next, 100 μL of the cell mixture was transferred to a 96 well plate (BIOCOAT 6640, Becton Dickinson, Allschwil, Switzerland) and incubated for 20 h at 37 °C. For the cAMP assay, the medium was removed and replaced with 50 μL PBS lacking calcium or magnesium ions. The PBS was extracted via snap inversion and the plate was gently tapped on tissue to remove any remaining PBS solution. The plate was then incubated with Krebs-Ringer Bicarbonate buffer (90 μL/well; KRB, Sigma-Aldrich) containing 1 mM IBMX for 1 h at 37 °C and 5% CO2/95% air. Test compounds were investigated in duplicate at various concentrations ranging from 300 pM to 30 μM. A cAMP standard curve (concentration range of 0.13 nM–10 μM) was included on each 96 well plate. Additionally, a reference plate was used containing RO5256390, β-phenylethylamine and p-tyramine. Cells were incubated with either 30 μL of compound solution, β-phenylethylamine (which represented the maximal response) or a basal control in PBS (supplemented with 1 mM IBMX) for 40 min at 37 °C. Thereafter, the cells were incubated with 50 μL of 3× detection mix solution (consisting of Ru-cAMP Alexa700 anti-cAMP antibody and lysis buffer) for 40 min at 37 °C, while covered with black lids and under forceful shaking. The fluorescence (456 nm excitation wavelength; 630 and 700 nm emission wavelengths) was measured using a NanoScan reader (Innovate Optische Messtechnik, Berlin, Germany) and the FRET signal was calculated using the following equation: FRET (700 nm) – P × FRET (630 nm). P was equal to Ru (700 nm)/Ru (630 nm).

The next experiment deals with hDAT (Homo sapiens, UniProt Q01959). As to the kind of experiment: Radioligand binding, DAT ([3H]WIN35,428).
A further experiment concerns the target hSERT (Homo sapiens, UniProt P31645). Put plainly: Radioligand binding, SERT ([3H]citalopram).
The target of another experiment is rTAAR1 (Rattus norvegicus, UniProt Q923Y9). As to the kind of experiment: Radioligand binding, rat TAAR1 ([3H]RO5166017).
The next experiment deals with hNET (Homo sapiens, UniProt P23975). Put plainly: Radioligand binding, NET (N-methyl-[3H]nisoxetine).
For a further experiment, the target named is T2, h5-HT2C receptor (Homo sapiens, UniProt P28335).
T2 sequence (P28335 33-458): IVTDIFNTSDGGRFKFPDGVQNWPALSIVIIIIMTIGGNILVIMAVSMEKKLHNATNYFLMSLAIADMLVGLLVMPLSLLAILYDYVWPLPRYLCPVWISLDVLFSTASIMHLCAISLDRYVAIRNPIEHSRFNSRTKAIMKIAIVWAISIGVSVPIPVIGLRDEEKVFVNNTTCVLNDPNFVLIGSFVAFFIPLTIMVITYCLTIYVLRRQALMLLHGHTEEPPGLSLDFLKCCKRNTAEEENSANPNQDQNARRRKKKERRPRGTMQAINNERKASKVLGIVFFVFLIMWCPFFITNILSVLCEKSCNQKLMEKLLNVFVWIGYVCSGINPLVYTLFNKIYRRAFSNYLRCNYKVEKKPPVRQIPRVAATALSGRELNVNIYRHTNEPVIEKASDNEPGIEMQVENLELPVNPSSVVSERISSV
As to the kind of experiment: Radioligand binding, 5-HT2C receptor ([3H]mesulergine).

The next experiment has as its target T3, hα1A adrenergic receptor (Homo sapiens, UniProt P35348).
T3 sequence (P35348 1-466): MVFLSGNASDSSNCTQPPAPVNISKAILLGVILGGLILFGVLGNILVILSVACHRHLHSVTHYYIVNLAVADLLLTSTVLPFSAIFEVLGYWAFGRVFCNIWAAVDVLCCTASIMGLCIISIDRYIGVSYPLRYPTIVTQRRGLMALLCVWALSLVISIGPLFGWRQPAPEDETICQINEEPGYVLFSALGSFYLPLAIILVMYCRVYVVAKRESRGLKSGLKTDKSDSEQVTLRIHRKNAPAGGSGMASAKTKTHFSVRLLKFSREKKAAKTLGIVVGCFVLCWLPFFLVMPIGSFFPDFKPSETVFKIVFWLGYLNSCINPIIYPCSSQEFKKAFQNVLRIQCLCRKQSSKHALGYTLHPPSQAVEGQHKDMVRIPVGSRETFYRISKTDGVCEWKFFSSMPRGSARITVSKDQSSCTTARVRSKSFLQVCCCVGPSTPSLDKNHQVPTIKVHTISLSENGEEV
Put plainly: Radioligand binding, α1A adrenergic receptor ([3H]prazosin). To be noted: hα1A Ki ± SD.

The target in a further experiment is hD2 receptor (Homo sapiens, UniProt P14416). Put plainly: Radioligand binding, dopaminergic D2 receptor ([3H]spiperone).
hD2 receptor, sequence (P14416 whole entry): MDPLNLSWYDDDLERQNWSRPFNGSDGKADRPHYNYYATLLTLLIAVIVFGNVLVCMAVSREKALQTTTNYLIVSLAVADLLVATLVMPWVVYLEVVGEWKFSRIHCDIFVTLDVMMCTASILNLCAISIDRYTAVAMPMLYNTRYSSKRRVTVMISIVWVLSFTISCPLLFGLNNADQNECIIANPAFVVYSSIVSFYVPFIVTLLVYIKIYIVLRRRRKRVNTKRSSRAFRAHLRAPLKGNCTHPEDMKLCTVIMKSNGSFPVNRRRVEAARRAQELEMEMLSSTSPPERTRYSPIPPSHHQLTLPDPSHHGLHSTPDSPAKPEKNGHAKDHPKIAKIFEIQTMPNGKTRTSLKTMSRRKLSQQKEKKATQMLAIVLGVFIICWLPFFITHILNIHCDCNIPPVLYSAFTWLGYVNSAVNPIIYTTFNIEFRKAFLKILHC

hSERT, sequence (P31645 whole entry): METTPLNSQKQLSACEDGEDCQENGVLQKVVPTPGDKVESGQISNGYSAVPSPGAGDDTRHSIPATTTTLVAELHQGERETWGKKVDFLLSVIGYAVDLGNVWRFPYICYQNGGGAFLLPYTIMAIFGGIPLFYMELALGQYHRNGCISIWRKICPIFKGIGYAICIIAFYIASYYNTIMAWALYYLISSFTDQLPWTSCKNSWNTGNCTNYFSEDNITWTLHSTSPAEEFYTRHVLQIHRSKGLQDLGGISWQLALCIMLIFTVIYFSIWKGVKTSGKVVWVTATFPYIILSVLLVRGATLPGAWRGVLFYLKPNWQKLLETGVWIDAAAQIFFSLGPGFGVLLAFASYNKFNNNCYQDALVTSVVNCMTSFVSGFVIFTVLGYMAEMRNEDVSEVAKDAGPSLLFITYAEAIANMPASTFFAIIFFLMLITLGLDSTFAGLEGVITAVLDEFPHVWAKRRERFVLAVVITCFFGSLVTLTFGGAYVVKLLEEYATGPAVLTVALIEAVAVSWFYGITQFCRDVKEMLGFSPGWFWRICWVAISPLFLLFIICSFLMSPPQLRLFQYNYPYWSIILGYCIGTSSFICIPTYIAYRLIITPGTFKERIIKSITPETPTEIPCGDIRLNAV
rTAAR1, sequence (Q923Y9 whole entry): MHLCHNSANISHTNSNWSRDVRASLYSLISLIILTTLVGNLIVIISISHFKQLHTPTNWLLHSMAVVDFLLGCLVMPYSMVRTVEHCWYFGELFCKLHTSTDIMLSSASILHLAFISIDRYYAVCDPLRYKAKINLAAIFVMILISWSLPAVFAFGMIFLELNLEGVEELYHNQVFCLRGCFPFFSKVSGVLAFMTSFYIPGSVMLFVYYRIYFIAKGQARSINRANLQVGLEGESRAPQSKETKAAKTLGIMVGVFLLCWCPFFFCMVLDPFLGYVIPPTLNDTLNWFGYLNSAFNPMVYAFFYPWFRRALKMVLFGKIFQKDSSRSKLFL
hNET, sequence (P23975 whole entry): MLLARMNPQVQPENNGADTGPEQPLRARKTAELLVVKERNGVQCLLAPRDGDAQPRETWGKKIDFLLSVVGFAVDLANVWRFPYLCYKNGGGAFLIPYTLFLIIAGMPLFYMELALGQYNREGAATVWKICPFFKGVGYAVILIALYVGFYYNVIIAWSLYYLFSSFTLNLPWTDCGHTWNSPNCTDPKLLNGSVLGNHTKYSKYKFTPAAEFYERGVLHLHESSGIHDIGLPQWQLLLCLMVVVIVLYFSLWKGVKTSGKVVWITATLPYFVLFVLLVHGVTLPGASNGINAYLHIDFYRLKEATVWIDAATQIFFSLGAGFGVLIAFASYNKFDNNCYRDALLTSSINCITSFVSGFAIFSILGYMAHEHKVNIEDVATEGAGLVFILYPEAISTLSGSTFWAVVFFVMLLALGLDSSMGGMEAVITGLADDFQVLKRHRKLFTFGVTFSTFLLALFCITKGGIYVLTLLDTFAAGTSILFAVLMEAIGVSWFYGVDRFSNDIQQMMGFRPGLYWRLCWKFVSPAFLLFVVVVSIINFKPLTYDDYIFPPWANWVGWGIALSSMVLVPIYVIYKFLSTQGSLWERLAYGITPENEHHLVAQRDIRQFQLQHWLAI
hDAT, sequence (Q01959 whole entry): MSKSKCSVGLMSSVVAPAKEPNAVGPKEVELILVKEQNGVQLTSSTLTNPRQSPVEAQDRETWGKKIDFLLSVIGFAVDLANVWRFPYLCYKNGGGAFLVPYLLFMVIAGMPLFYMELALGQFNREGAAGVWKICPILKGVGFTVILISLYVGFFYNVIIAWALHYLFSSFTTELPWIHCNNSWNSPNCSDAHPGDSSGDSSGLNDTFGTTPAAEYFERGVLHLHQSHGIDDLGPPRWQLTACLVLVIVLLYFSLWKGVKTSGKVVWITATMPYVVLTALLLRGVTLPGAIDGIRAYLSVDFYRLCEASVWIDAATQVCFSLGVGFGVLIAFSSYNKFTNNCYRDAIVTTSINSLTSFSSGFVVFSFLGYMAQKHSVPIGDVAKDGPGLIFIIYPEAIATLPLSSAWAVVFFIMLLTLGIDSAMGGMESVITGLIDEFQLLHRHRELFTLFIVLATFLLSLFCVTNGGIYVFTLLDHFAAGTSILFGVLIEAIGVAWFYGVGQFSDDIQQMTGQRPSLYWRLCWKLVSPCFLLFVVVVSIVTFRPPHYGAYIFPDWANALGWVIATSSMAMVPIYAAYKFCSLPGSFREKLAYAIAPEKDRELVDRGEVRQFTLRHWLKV

As to `COc1cc(OCCF)cc(OC)c1CC(C)N` (stereo not drawn) [Ψ-MFEM, 2,6-dimethoxy-4-(2-fluoroethoxy)amphetamine], the EC50 at human TAAR1 worked out at 1900 nM. Further, the Ki was > 8500 nM on hDAT (hDAT Ki ± SD, [3H]WIN35,428); > 7500 nM on hSERT (hSERT Ki ± SD, [3H]citalopram); 52 ± 18 nM at rTAAR1; > 8800 nM at hNET; 10000 nM at h5-HT2C receptor; 6700 nM at hα1A adrenergic receptor. The Ki on hD2 receptor was > 6000 nM.

`C=C(C)COc1cc(OC)c(CC(C)N)c(OC)c1` (stereo not drawn) [Ψ-MMALM, 2,6-dimethoxy-4-methallyloxyamphetamine] had an EC50 on human TAAR1 of 2500 nM. The Ki at hDAT (hDAT Ki ± SD, [3H]WIN35,428) was 5700 nM; on hSERT (hSERT Ki ± SD, [3H]citalopram), > 7500 nM; on rTAAR1, 32 ± 5 nM; at hNET it was > 8800 nM; on h5-HT2C receptor, 290 ± 90 nM; on hα1A adrenergic receptor, 2200 nM. Moreover, the Ki at hD2 receptor was > 6000 nM.

Molecule `COc1cc(OC)c(CCN)c(OC)c1` [Ψ-2C-O-1, 2,4,6-trimethoxyphenethylamine] had an EC50 at human TAAR1 of 2300 nM. The Ki was > 8500 nM at hDAT (hDAT Ki ± SD, [3H]WIN35,428); > 7500 nM at hSERT (hSERT Ki ± SD, [3H]citalopram); 57 ± 12 nM on rTAAR1; > 8800 nM on hNET; 1200 nM on h5-HT2C receptor; > 8800 nM on hα1A adrenergic receptor. In addition, at hD2 receptor, the Ki was > 6000 nM.

Take `COc1cc(OCC(F)(F)F)cc(OC)c1CCN` [Ψ-2C-O-22, 2,6-dimethoxy-4-(2,2,2-trifluoroethoxy)phenethylamine]: on human TAAR1, it took 47 ± 22 nM to reach a half-maximal effect (EC50). The Ki was > 8500 nM on hDAT (hDAT Ki ± SD, [3H]WIN35,428); > 7500 nM at hSERT (hSERT Ki ± SD, [3H]citalopram); 21 ± 2 nM at rTAAR1; > 8800 nM at hNET; 2200 nM at h5-HT2C receptor; 2000 nM on hα1A adrenergic receptor. On hD2 receptor, the Ki was > 6000 nM.

As to `COc1cc(OCc2ccccc2)cc(OC)c1CC(C)N` (stereo not drawn) [Ψ-MBnM, 4-benzyloxy-2,6-dimethoxyamphetamine], the EC50 at human TAAR1 is > 30000 nM. Further, the Ki at hDAT (DAT Ki) is 1300 to 1800 nM; on hDAT (hDAT Ki ± SD, [3H]WIN35,428), 1800 nM; on hSERT (SERT Ki, no binding observed) it was < 7500 nM; at hSERT (hSERT Ki ± SD, [3H]citalopram) it was > 7500 nM; at rTAAR1 it was 6.1 ± 0.7 nM; at hNET it was 7100 nM. Besides, the values for the Ki at h5-HT2C receptor, on hα1A adrenergic receptor and at hD2 receptor were 270 ± 50 nM, 5800 nM and > 6000 nM, respectively.
